Measured values as given in PMC7159882, “Polyunsaturated fatty acid analogues differentially affect cardiac NaV, CaV, and KV channels through unique mechanisms” (eLife, 2020).

These compounds were tested against T1, Kv7.1/KCNE1 (Homo sapiens, UniProt P51787) (assay: Two-electrode voltage clamp of Kv7.1/KCNE1 expressed in Xenopus oocytes). Details: 0.2 μM.
T1 construct: cRNA encoding Kv7.1 (UniProt: P51787), KCNE1 (UniProt: P15382.1); expressed in transfected cells; host or cells: Xenopus laevis oocytes (cRNA injection, Kv7.1:KCNE1 3:1 by weight)
Format: cell-based
Design: Fitted slope factor of conductance vs voltage relationship: unit of the concentration uncertain
Procedure: Molecular Biology cRNA encoding Kv7.1 (UniProt: P51787), KCNE1 (UniProt: P15382.1), Nav1.5 (UniProt: Q14524.1), Nav β1 (UniProt: […]), Nav β3 (UniProt: […]), Cav1.2 (GenBank: CAA84346), Cav β3 (Uniprot: P54286), Cav β2 (Uniprot: P54288), and Cav α2δ (Uniprot: P13806) were transcribed using the mMessage mMachine T7 kit (Ambion). 50 ng of cRNA was injected into defolliculated Xenopus laevis oocytes (Ecocyte, Austin, TX): For Kv7.1/KCNE1 channel expression, we injected a 3:1, weight:weight (Kv7.1:KCNE1) cRNA ratio. For Nav1.5 channel expression, we injected a 2:1, weight:weight (Nav1.5:β1) cRNA ratio. For Cav1.2 channel expression, we injected a 2:1:1, weight:weight (Cav1.2:β3:α2δ) cRNA ratio. The exact stoichiometry for channel macromolecular complexes, including α -subunits and auxiliary subunits is not clear for many ion channels. For example, there have been multiple reported stoichiometries for Kv7.1:KCNE1 determined in heterologous expression systems with some groups reporting flexible stoichiometry of 4 Kv7.1: 1–4 KCNE1 and others reporting a fixed stoichiometry of 4 Kv7.1: 2 KCNE1 ([Murray et al., 2016]; [Nakajo et al., 2010]). The ratios of cRNA of α- and auxiliary subunits that we injected in Xenopus laevis oocytes are such that all α-subunits are assumed to be in complex with auxiliary subunits. This allows a more homogenous population of ion channels with auxiliary subunits. One caveat to expressing ion channels as macromolecular complexes is that there are many other auxiliary subunits that could associate with the channel α -subunit that are present in cardiomyocytes and have the potential to alter PUFA-induced effects, but that are not being co-expressed in our experiments. In this work, we are co-expressing some of the auxiliary subunits that have been primarily reported to associate with their respective α -subunits in cardiomyocytes. Following cRNA injection, cells were incubated for 72–96 hr in standard ND96 solution (96 mM NaCl, 2 mM KCl, 1 mM MgCl2, 1.8 mM CaCl2, 5 mM HEPES; pH = 7.5) containing 1 mM pyruvate at 16°C prior to electrophysiological recordings.
Xenopus laevis oocytes were recorded in the two-electrode voltage clamp (TEVC) configuration. Recording pipettes were filled with 3 M KCl. The recording chamber was filled with ND96 (96 mM NaCl, 2 mM KCl, 1 mM MgCl2, 1.8 mM CaCl2, 5 mM HEPES; pH 7.5). For Cav1.2/β3/α2δ channel recordings, Xenopus oocytes were injected with 50 nl of 100 mM EGTA and incubated at 10°C for 30 min prior to electrophysiological recordings in order to sequester cytosolic calcium. In addition, Cav1.2/β3/α2δ channel recordings were done in Ca^2+-free solutions, using Ba^2+ as the charge carrier, to prevent calcium-dependent inactivation of Cav1.2/β3/α2δ channels. Calcium-dependent inactivation was not studied in this work, due to the presence of large calcium-activated chloride currents present in Xenopus laevis oocytes. PUFAs were obtained from Cayman Chemical (Ann Arbor, MI.) or synthesized in house (Linköping, Sweden) through methods previously described ([Bohannon et al., 2020]) and kept at −20 °C as 100 mM stock solutions in ethanol. […] PUFAs were perfused into the recording chamber using the Rainin Dynamax Peristaltic Pump (Model RP-1) (Rainin Instrument Co., Oakland, CA. USA).
Electrophysiological recordings were obtained using Clampex 10.3 software (Axon, pClamp, Molecular Devices). To measure Kv7.1/KCNE1 currents we apply PUFAs as the membrane potential is stepped every 30 s from −80 mV to 0 mV for 5 s before stepping to −40 mV and back to −80 mV to ensure that the PUFA effects on the current at 0 mV reached steady state. A voltage-step protocol was used to measure the current vs. voltage (I-V) relationship before PUFA application and after the PUFA effects had reached steady state for each concentration of PUFA. Cells were held at −80 mV followed by a hyperpolarizing prepulse to −140 mV. […]

| Fitted slope factor of conductance vs voltage relationship | Gmax/Gmax0 | ΔV0.5 (voltage dependence of activation) | SMILES |
| --- | --- | --- | --- |
| 17.7 ± 0.76 mV | 1.0 ± 0.03 | 1.3 ± 0.7 mV | CCCCC/C=C\C/C=C\CCCCCCCC(=O)NCCS(=O)(=O)O [Lin-taurine, Linoleoyl taurine] |
| 18.2 ± 0.89 mV | 1.2 ± 0.1 | -2.7 ± 1.5 mV | CCCCC/C=C\C/C=C\CCCCCCCC(=O)NCC(=O)O [Lin-glycine] |
| 17.9 ± 0.83 mV | 1.0 ± 0.1 | 3.9 ± 0.6 mV | CCCCC/C=C\C/C=C\CC/C=C\CCCC(=O)NCC(=O)O [Pin-glycine] |

Same assay, conditions: 0.2 μM; relative current at 0 mV

| IKs I/I0 | SMILES |
| --- | --- |
| 1.0 ± 0.1 | CCCCC/C=C\C/C=C\CCCCCCCC(=O)NCCS(=O)(=O)O [Lin-taurine, Linoleoyl taurine] |
| 1.2± 0.1 | CCCCC/C=C\C/C=C\CCCCCCCC(=O)NCC(=O)O [Lin-glycine] |
| 0.7 ± 0.1 | CCCCC/C=C\C/C=C\CC/C=C\CCCC(=O)NCC(=O)O [Pin-glycine] |

Same assay, conditions: 0.7 μM

| Fitted slope factor of conductance vs voltage relationship | Gmax/Gmax0 | ΔV0.5 (voltage dependence of activation) | SMILES |
| --- | --- | --- | --- |
| 17.7 ± 0.77 mV | 1.1 ± 0.02 | -0.3 ± 1.4 mV | CCCCC/C=C\C/C=C\CCCCCCCC(=O)NCCS(=O)(=O)O [Lin-taurine, Linoleoyl taurine] |
| 19.0 ± 1.0 mV | 1.3 ± 0.1 | -3.3 ± 3.0 mV | CCCCC/C=C\C/C=C\CCCCCCCC(=O)NCC(=O)O [Lin-glycine] |
| 17.8 ± 0.84 mV | 1.2 ± 0.1 | 2.3 ± 0.2 mV | CCCCC/C=C\C/C=C\CC/C=C\CCCC(=O)NCC(=O)O [Pin-glycine] |

Same assay, conditions: 0.7 μM; relative current at 0 mV

| IKs I/I0 | SMILES |
| --- | --- |
| 1.2 ± 0.2 | CCCCC/C=C\C/C=C\CCCCCCCC(=O)NCCS(=O)(=O)O [Lin-taurine, Linoleoyl taurine] |
| 1.4 ± 0.1 | CCCCC/C=C\C/C=C\CCCCCCCC(=O)NCC(=O)O [Lin-glycine] |
| 1.0 ± 0.1 | CCCCC/C=C\C/C=C\CC/C=C\CCCC(=O)NCC(=O)O [Pin-glycine] |

Same assay, conditions: 2 μM

| Fitted slope factor of conductance vs voltage relationship | Gmax/Gmax0 | ΔV0.5 (voltage dependence of activation) | SMILES |
| --- | --- | --- | --- |
| 18.6 ± 1.0 mV | 1.7 ± 0.4 | -12.3 ± 3.1 mV | CCCCC/C=C\C/C=C\CCCCCCCC(=O)NCCS(=O)(=O)O [Lin-taurine, Linoleoyl taurine] |
| 19.2 ± 1.2 mV | 1.8 ± 0.2 | -10.0 ± 2.8 mV | CCCCC/C=C\C/C=C\CCCCCCCC(=O)NCC(=O)O [Lin-glycine] |
| 17.9 ± 0.91 mV | 1.3 ± 0.1 | 2.3 ± 0.7 mV | CCCCC/C=C\C/C=C\CC/C=C\CCCC(=O)NCC(=O)O [Pin-glycine] |

Same assay, conditions: 2 μM; relative current at 0 mV

| IKs I/I0 | SMILES |
| --- | --- |
| 3.2 ± 0.9 | CCCCC/C=C\C/C=C\CCCCCCCC(=O)NCCS(=O)(=O)O [Lin-taurine, Linoleoyl taurine] |
| 2.5 ± 0.4 | CCCCC/C=C\C/C=C\CCCCCCCC(=O)NCC(=O)O [Lin-glycine] |
| 1.1 ± 0.1 | CCCCC/C=C\C/C=C\CC/C=C\CCCC(=O)NCC(=O)O [Pin-glycine] |

Same assay, conditions: 7 μM

| Fitted slope factor of conductance vs voltage relationship | Gmax/Gmax0 | ΔV0.5 (voltage dependence of activation) | SMILES |
| --- | --- | --- | --- |
| 18.1 ± 1.0 mV | 1.9 ± 0.6 | −39.9 ± 3.6 mV | CCCCC/C=C\C/C=C\CCCCCCCC(=O)NCCS(=O)(=O)O [Lin-taurine, Linoleoyl taurine] |
| 20.6 ± 1.5 mV | 2.3 ± 0.2 | −23.8 ± 1.6 mV | CCCCC/C=C\C/C=C\CCCCCCCC(=O)NCC(=O)O [Lin-glycine] |
| 18.7 ± 1.1 mV | 1.7 ± 0.1 | – | CCCCC/C=C\C/C=C\CC/C=C\CCCC(=O)NCC(=O)O [Pin-glycine] |

Same assay, conditions: 7 μM; listed as lin-glycine

| ΔV0.5 (voltage dependence of activation) | SMILES |
| --- | --- |
| -23.8 ± 1.6 mV | CCCCC/C=C\C/C=C\CCCCCCCC(=O)NCC(=O)O [Lin-glycine] |

Same assay, conditions: 7 μM; listed as lin-taurine

| ΔV0.5 (voltage dependence of activation) | SMILES |
| --- | --- |
| -39.9 ± 3.6 mV | CCCCC/C=C\C/C=C\CCCCCCCC(=O)NCCS(=O)(=O)O [Lin-taurine, Linoleoyl taurine] |

Same assay, conditions: 7 μM; listed as pin-glycine

| ΔV0.5 (voltage dependence of activation) | SMILES |
| --- | --- |
| -8.5 ± 1.7 mV | CCCCC/C=C\C/C=C\CC/C=C\CCCC(=O)NCC(=O)O [Pin-glycine] |

Same assay, conditions: 7 μM; relative current at 0 mV

| IKs I/I0 | SMILES |
| --- | --- |
| 7.7 ± 2.9 (p=0.14) | CCCCC/C=C\C/C=C\CCCCCCCC(=O)NCCS(=O)(=O)O [Lin-taurine, Linoleoyl taurine] |
| 5.1 ± 0.4 (p=0.002) | CCCCC/C=C\C/C=C\CCCCCCCC(=O)NCC(=O)O [Lin-glycine] |

Same assay, conditions: 7 μM; relative current at 0 mV; listed as lin-glycine

| IKs I/I0 | SMILES |
| --- | --- |
| 5.1 ± 0.4 | CCCCC/C=C\C/C=C\CCCCCCCC(=O)NCC(=O)O [Lin-glycine] |

Same assay, conditions: 7 μM; relative current at 0 mV; listed as lin-taurine

| IKs I/I0 | SMILES |
| --- | --- |
| 7.7 ± 2.9 | CCCCC/C=C\C/C=C\CCCCCCCC(=O)NCCS(=O)(=O)O [Lin-taurine, Linoleoyl taurine] |

Same assay, conditions: 7 μM; relative current at 0 mV; listed as pin-glycine

| IKs I/I0 | SMILES |
| --- | --- |
| 2.4 ± 0.2 | CCCCC/C=C\C/C=C\CC/C=C\CCCC(=O)NCC(=O)O [Pin-glycine] |

Same assay, conditions: 20 μM

| Fitted slope factor of conductance vs voltage relationship | Gmax/Gmax0 | ΔV0.5 (voltage dependence of activation) | SMILES |
| --- | --- | --- | --- |
| 12.2 ± 1.8 mV | 2.0 ± 0.6 | -73.1 ± 2.6 mV | CCCCC/C=C\C/C=C\CCCCCCCC(=O)NCCS(=O)(=O)O [Lin-taurine, Linoleoyl taurine] |
| 22.1 ± 1.7 mV | 2.4 ± 0.2 | -26.4 ± 4.4 mV | CCCCC/C=C\C/C=C\CCCCCCCC(=O)NCC(=O)O [Lin-glycine] |
| 20.9 ± 1.4 mV | 1.7 ± 0.1 | -19.9 ± 2.4 mV | CCCCC/C=C\C/C=C\CC/C=C\CCCC(=O)NCC(=O)O [Pin-glycine] |

Same assay, conditions: 20 μM; relative current at 0 mV

| IKs I/I0 | SMILES |
| --- | --- |
| 10.4 ± 4.0 | CCCCC/C=C\C/C=C\CCCCCCCC(=O)NCCS(=O)(=O)O [Lin-taurine, Linoleoyl taurine] |
| 5.3 ± 0.5 | CCCCC/C=C\C/C=C\CCCCCCCC(=O)NCC(=O)O [Lin-glycine] |
| 3.6 ± 0.2 | CCCCC/C=C\C/C=C\CC/C=C\CCCC(=O)NCC(=O)O [Pin-glycine] |
